Experimental data from US20230085307A1, “PYRIDAZINONE COMPOUND AND HERBICIDE” (NISSAN CHEMICAL CORPORATION, priority 2019, published 2023).

Experiments:
late watergrass = test: Test Example 1: herbicidal activity, application before weed generation under submerged conditions (Table 16, symbol A); assay type: in vivo, late watergrass (Echinochloa oryzicola); details: 320 g/ha applied herbicide
In short: (§1)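 Submerged Wagner pots (alluvial soil, 4 cm water) sown with weed seeds and planted with 2.5-leaf rice seedlings; emulsifiable concentrate diluted in water applied to water surface on sowing day. Held in greenhouse at 25-30 °C; injury scored 0-5 by herbicidal rate after three weeks.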

Japanese bulrush = test: Test Example 1: herbicidal activity, application before weed generation under submerged conditions (Table 16, symbol B); assay type: in vivo, Japanese bulrush (Schoenoplectus juncoides); details: 320 g/ha applied herbicide
In short: as §1

oval-leafed pondweed = test: Test Example 1: herbicidal activity, application before weed generation under submerged conditions (Table 16, symbol C); assay type: in vivo, oval-leafed pondweed (Monochoria vaginalis); details: 320 g/ha applied herbicide
In short: as §1

barnyard grass [1] = test: Test Example 3: herbicidal effect by foliage application, Wagner pot (Table 18, symbol H); assay type: in vivo, barnyard grass (Echinochloa crus-galli); details: amount of applied herbicide 320 g/ha
In short: (§2)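 Plants were sown in alluvial soil held under 0.1–0.5 cm standing water and grown 14 days in a greenhouse at 25–30 °C. An emulsifiable formulation, water-diluted to the set dose, was then sprayed onto the foliage, and effects were scored three weeks later using previously defined criteria.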

Chinese sprangletop = test: Test Example 3: herbicidal effect by foliage application, Wagner pot (Table 18, symbol D); assay type: in vivo, chinese sprangletop (Leptochloa chinensis); details: amount of applied herbicide 320 g/ha
In short: as §2

rice flat sedge = test: Test Example 3: herbicidal effect by foliage application, Wagner pot (Table 18, symbol E); assay type: in vivo, rice flat sedge (Cyperus iria); details: amount of applied herbicide 320 g/ha
In short: as §2

southern crabgrass [2] = test: Test Example 4: herbicidal effect by soil treatment (Table 19, symbol F); assay type: in vivo, southern crabgrass (Digitaria ciliaris); details: amount of applied herbicide 320 g/ha
In short: (§3)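 Pre-emergence style soil spray: seeds under ~1.5 cm sterilized diluvial soil received a uniform coat of emulsion diluted to the predetermined herbicide amount. Greenhouse 25–30° C; readout at week three on previously defined criteria.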

green foxtail [3] = test: Test Example 4: herbicidal effect by soil treatment (Table 19, symbol G); assay type: in vivo, green foxtail (Setaria viridis); details: amount of applied herbicide 320 g/ha
In short: as §3

barnyard grass [4] = test: Test Example 4: herbicidal effect by soil treatment (Table 19, symbol H); assay type: in vivo, barnyard grass (Echinochloa crus-galli); details: amount of applied herbicide 320 g/ha
In short: as §3

wild oat [5] = test: Test Example 4: herbicidal effect by soil treatment (Table 19, symbol I); assay type: in vivo, wild oat (Avena fatua); details: amount of applied herbicide 320 g/ha
In short: as §3

blackgrass [6] = test: Test Example 4: herbicidal effect by soil treatment (Table 19, symbol J); assay type: in vivo, blackgrass (Alopecurus myosuroides); details: amount of applied herbicide 320 g/ha
In short: as §3

Italian ryegrass [7] = test: Test Example 4: herbicidal effect by soil treatment (Table 19, symbol K); assay type: in vivo, Italian ryegrass (Lolium multiflorum); details: amount of applied herbicide 320 g/ha
In short: as §3

windgrass [8] = test: Test Example 4: herbicidal effect by soil treatment (Table 19, symbol L); assay type: in vivo, windgrass (Apera spica-venti); details: amount of applied herbicide 320 g/ha
In short: as §3

velvetleaf [9] = test: Test Example 4: herbicidal effect by soil treatment (Table 19, symbol M); assay type: in vivo, velvetleaf (Abutilon theophrasti); details: amount of applied herbicide 320 g/ha
In short: as §3

redroot pigweed [10] = test: Test Example 4: herbicidal effect by soil treatment (Table 19, symbol N); assay type: in vivo, redroot pigweed (Amaranthus retroflexus); details: amount of applied herbicide 320 g/ha
In short: as §3

lambsquarters [11] = test: Test Example 4: herbicidal effect by soil treatment (Table 19, symbol O); assay type: in vivo, lambsquarters (Chenopodium album); details: amount of applied herbicide 320 g/ha
In short: as §3

chickweed [12] = test: Test Example 4: herbicidal effect by soil treatment (Table 19, symbol P); assay type: in vivo, common chickweed (Stellaria media); details: amount of applied herbicide 320 g/ha
In short: as §3

persian speedwell [13] = test: Test Example 4: herbicidal effect by soil treatment (Table 19, symbol R); assay type: in vivo, Persian speedwell (Veronica persica); details: amount of applied herbicide 320 g/ha
In short: as §3

southern crabgrass [14] = test: Test Example 5: herbicidal effect by foliage application, plastic box (Table 20, symbol F); assay type: in vivo, southern crabgrass (Digitaria ciliaris); details: foliage application, AAH 320 g/ha, evaluated three weeks after application
In short: (§4)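 Plants were sown into sterilized diluvial soil under about 1.5 cm cover and kept in a greenhouse at 25° C. to 30° C. Fourteen days on, foliage received an even spray of the diluted emulsion. Herbicidal or crop effect was judged three weeks afterwards.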

green foxtail [15] = test: Test Example 5: herbicidal effect by foliage application, plastic box (Table 20, symbol G); assay type: in vivo, green foxtail (Setaria viridis); details: foliage application, AAH 320 g/ha, evaluated three weeks after application
In short: as §4

barnyard grass [16] = test: Test Example 5: herbicidal effect by foliage application, plastic box (Table 20, symbol H); assay type: in vivo, barnyard grass (Echinochloa crus-galli); details: foliage application, AAH 320 g/ha, evaluated three weeks after application
In short: as §4

wild oat [17] = test: Test Example 5: herbicidal effect by foliage application, plastic box (Table 20, symbol I); assay type: in vivo, wild oat (Avena fatua); details: foliage application, AAH 320 g/ha, evaluated three weeks after application
In short: as §4

blackgrass [18] = test: Test Example 5: herbicidal effect by foliage application, plastic box (Table 20, symbol J); assay type: in vivo, blackgrass (Alopecurus myosuroides); details: foliage application, AAH 320 g/ha, evaluated three weeks after application
In short: as §4

Italian ryegrass [19] = test: Test Example 5: herbicidal effect by foliage application, plastic box (Table 20, symbol K); assay type: in vivo, Italian ryegrass (Lolium multiflorum); details: foliage application, AAH 320 g/ha, evaluated three weeks after application
In short: as §4

windgrass [20] = test: Test Example 5: herbicidal effect by foliage application, plastic box (Table 20, symbol L); assay type: in vivo, windgrass (Apera spica-venti); details: foliage application, AAH 320 g/ha, evaluated three weeks after application
In short: as §4

velvetleaf [21] = test: Test Example 5: herbicidal effect by foliage application, plastic box (Table 20, symbol M); assay type: in vivo, velvetleaf (Abutilon theophrasti); details: foliage application, AAH 320 g/ha, evaluated three weeks after application
In short: as §4

redroot pigweed [22] = test: Test Example 5: herbicidal effect by foliage application, plastic box (Table 20, symbol N); assay type: in vivo, redroot pigweed (Amaranthus retroflexus); details: foliage application, AAH 320 g/ha, evaluated three weeks after application
In short: as §4

lambsquarters [23] = test: Test Example 5: herbicidal effect by foliage application, plastic box (Table 20, symbol O); assay type: in vivo, lambsquarters (Chenopodium album); details: foliage application, AAH 320 g/ha, evaluated three weeks after application
In short: as §4

chickweed [24] = test: Test Example 5: herbicidal effect by foliage application, plastic box (Table 20, symbol P); assay type: in vivo, common chickweed (Stellaria media); details: foliage application, AAH 320 g/ha, evaluated three weeks after application
In short: as §4

false cleavers = test: Test Example 5: herbicidal effect by foliage application, plastic box (Table 20, symbol Q); assay type: in vivo, false cleavers (Galium spurium); details: foliage application, AAH 320 g/ha, evaluated three weeks after application
In short: as §4

persian speedwell [25] = test: Test Example 5: herbicidal effect by foliage application, plastic box (Table 20, symbol R); assay type: in vivo, Persian speedwell (Veronica persica); details: foliage application, AAH 320 g/ha, evaluated three weeks after application
In short: as §4

Compound: Cc1nn(C)c(=O)c(-c2c(-c3ccc(OC(F)F)cc3)sc3ccc(F)cc23)c1OS(=O)(=O)c1ccc(Cl)cc1 [2-311]
- Herbicidal effect on A: late watergrass (grade 0-5) (late watergrass): 3 (Herbicidal rate of 40% or more and less than 70%)
- Herbicidal effect on B: Japanese bulrush (grade 0-5) (Japanese bulrush): 3 (Herbicidal rate of 40% or more and less than 70%)
- Herbicidal effect on C: oval-leafed pondweed (grade 0-5) (oval-leafed pondweed): 3 (Herbicidal rate of 40% or more and less than 70%)
- herbicidal effect on H: barnyard grass (barnyard grass [1]): 5 (Herbicidal rate of 90% or more (almost completely withered))
- herbicidal effect on D: Chinese sprangletop (Chinese sprangletop): 2 (Herbicidal rate of 20% or more and less than 40%)
- herbicidal effect on E: rice flat sedge (rice flat sedge): 4 (Herbicidal rate of 70% or more and less than 90%)
- herbicidal effect on F: southern crabgrass (southern crabgrass [2]): 0 (Herbicidal rate of 5% or less (almost no effect))
- herbicidal effect on G: green foxtail (green foxtail [3]): 0 (Herbicidal rate of 5% or less (almost no effect))
- herbicidal effect on H: barnyard grass (barnyard grass [4]): 0 (Herbicidal rate of 5% or less (almost no effect))
- herbicidal effect on I: wild oat (wild oat [5]): 0 (Herbicidal rate of 5% or less (almost no effect))
- herbicidal effect on J: blackgrass (blackgrass [6]): 0 (Herbicidal rate of 5% or less (almost no effect))
- herbicidal effect on K: Italian ryegrass (Italian ryegrass [7]): 4 (Herbicidal rate of 70% or more and less than 90%)
- herbicidal effect on L: windgrass (windgrass [8]): 0 (Herbicidal rate of 5% or less (almost no effect))
- herbicidal effect on M: velvetleaf (velvetleaf [9]): 2 (Herbicidal rate of 20% or more and less than 40%)
- herbicidal effect on N: redroot pigweed (redroot pigweed [10]): 4 (Herbicidal rate of 70% or more and less than 90%)
- herbicidal effect on O: lambsquarters (lambsquarters [11]): 5 (Herbicidal rate of 90% or more (almost completely withered))
- herbicidal effect on P: chickweed (chickweed [12]): 3 (Herbicidal rate of 40% or more and less than 70%)
- herbicidal effect on R: persian speedwell (persian speedwell [13]): 4 (Herbicidal rate of 70% or more and less than 90%)
- F: southern crabgrass, herbicidal effect (criteria 0-5) (southern crabgrass [14]): 2 (Herbicidal rate of 20% or more and less than 40%)
- G: green foxtail, herbicidal effect (criteria 0-5) (green foxtail [15]): 5 (Herbicidal rate of 90% or more (almost completely withered))
- H: barnyard grass, herbicidal effect (criteria 0-5) (barnyard grass [16]): 5 (Herbicidal rate of 90% or more (almost completely withered))
- I: wild oat, herbicidal effect (criteria 0-5) (wild oat [17]): 3 (Herbicidal rate of 40% or more and less than 70%)
- J: blackgrass, herbicidal effect (criteria 0-5) (blackgrass [18]): 3 (Herbicidal rate of 40% or more and less than 70%)
- K: Italian ryegrass, herbicidal effect (criteria 0-5) (Italian ryegrass [19]): 5 (Herbicidal rate of 90% or more (almost completely withered))
- L: windgrass, herbicidal effect (criteria 0-5) (windgrass [20]): 4 (Herbicidal rate of 70% or more and less than 90%)
- M: velvetleaf, herbicidal effect (criteria 0-5) (velvetleaf [21]): 5 (Herbicidal rate of 90% or more (almost completely withered))
- N: redroot pigweed, herbicidal effect (criteria 0-5) (redroot pigweed [22]): 5 (Herbicidal rate of 90% or more (almost completely withered))
- O: lambsquarters, herbicidal effect (criteria 0-5) (lambsquarters [23]): 5 (Herbicidal rate of 90% or more (almost completely withered))
- P: chickweed, herbicidal effect (criteria 0-5) (chickweed [24]): 5 (Herbicidal rate of 90% or more (almost completely withered))
- Q: false cleavers, herbicidal effect (criteria 0-5) (false cleavers): 5 (Herbicidal rate of 90% or more (almost completely withered))
- R: persian speedwell, herbicidal effect (criteria 0-5) (persian speedwell [25]): 5 (Herbicidal rate of 90% or more (almost completely withered))
